In patent US10940118B2, “Nanoparticles and methods of producing the same” (THE BOARD OF TRUSTEES OF THE UNIVERSITY OF ILLINOIS, priority 2013, dated 2021):

Assays:
ICR mice [1] = assay: 52° C. warm-water tail-flick test, acute morphine tolerance; format: in vivo; conditions: oral administration following subcutaneous injection of morphine
Protocol: Basal nociception and morphine-induced antinociception were studied using the 52° C. warm-water tail-flick test. In brief, mice were held over the water bath and one third of the distal portion of the tail was immersed into the water. The latency to a quick tail-flick response was recorded as a base-line measurement. Any mouse not responding within 5 sec was excluded from further experiment. To prevent tissue damage, a cut-off time of 12 sec was applied. Morphine-induced antinociception was evaluated 30 min after the injection of a testing dose of morphine (10 mg/kg s.c.), and expressed as the percentage of maximal possible effect (% MPE) according to the following formula: % MPE=100×(postdrug latency−predrug latency)/(cut off−predrug latency)
To induce acute tolerance and dependence, separate groups of three ICR mice (20-25 g) were treated with a large dose of morphine (100 mg/kg s.c.). Maximal morphine tolerance and dependence peaked at approximately 4 to 6 h. Mice in the control group received an equal volume of saline. Tolerance to opioids was assessed 4.5 h later by monitoring the antinociceptive effect produced by a test dose of morphine (10 mg/kg, s.c.). The presence of opioid tolerance was signified by a significant reduction of antinociceptive effect. […] Mice were immediately placed inside glass cylinders, and naloxone-induced vertical jumps were recorded for 15 min. […]

ICR mice [2] = assay: Hot plate test, acute morphine tolerance; format: in vivo; conditions: oral administration following subcutaneous injection of morphine
Protocol: For assessment of response latencies to thermal stimulus in mice, a Cold/Hot Plate Analgesia Meter (Ugo Basile, Comerio, Italy) was used. In this study, mice were placed on a hot plate that was thermostatically maintained at 55±1° C. The nociceptive response was evaluated as the latency to the first licking or lifting of the rear paws or escape jumping. Mice were removed from the hot plate immediately after displaying the response and a cut-off time of 30 sec was set to prevent tissue damage. The anti-nociceptive effect was measured using the same percentage of maximal possible effect (% MPE) as above.
To induce acute tolerance and dependence, separate groups of three ICR mice (20-25 g) were treated with a large dose of morphine (100 mg/kg s.c.). Maximal morphine tolerance and dependence peaked at approximately 4 to 6 h. Mice in the control group received an equal volume of saline. Tolerance to opioids was assessed 4.5 h later by monitoring the antinociceptive effect produced by a test dose of morphine (10 mg/kg, s.c.). The presence of opioid tolerance was signified by a significant reduction of antinociceptive effect. To examine dependence on opioids, mice were challenged with naloxone (10 mg/kg i.p.) 5h after the administration of morphine (100 mg/kg s.c.). Mice were immediately placed inside glass cylinders, and naloxone-induced vertical jumps were recorded for 15 min. […]

`COc1cc(C=CC(=O)CC(=O)C=Cc2ccc(O)c(OC)c2)ccc1O` [unformulated curcumin, 1,7-bis-(4-hydroxy-3-methoxyphenyl)-1,6-heptadiene-3,5-dione] was tested, and the “Analgesia in tail-flick test” value (ICR mice [1]) was “minimal effect” and the “Analgesia in hot plate test” value (ICR mice [2]) was “minimal effect”.
